Source: patent US6852722B2, “Compositions and methods for stimulating gastrointestinal mobility” (Pfizer Inc., priority 2000, dated 2005)

System: Male CD Sprague-Dawley rats
Assay: Gastrointestinal transit in rats (51Cr marker: gastric emptying and geometric center)
Type: in vivo, rat
Conditions: for effect on gastrointestinal transit: 0.1 mg/kg oral; for % Gastric Emptying: 51Cr marker 15 min after dose, killed 20 min later; for % Gastric Emptying / Geometric Center: mean ± SEM; for Geometric Center: stomach = segment 0, intestine segments 1-10; for increase in gastric emptying / increase in geometric center (transit through stomach and small intestine): relative to vehicle
Description: Male CD Sprague-Dawley rats (175-225 grams) are fitted with tail cups to prevent coprophagy and fasted overnight. The next day the rats are orally given either vehicle (water, 5 ml/kg) or a solution of the test compound in water at doses of 0.1, 0.5, 1 or 5 mg/kg p.o. Fifteen minutes later, the rats are given 1.0 ml of an evaporated milk solution containing 20,000 cpm of ^51Cr as sodium chromate.
The rats are killed 20 minutes after administration of the radioactive marker. The gastroesophageal, pyloric, and ileocecal junctions are ligated, the stomach is removed and the small intestine is divided into ten equal lengths. The stomach and each length of intestine are assayed for radioactivity with a gamma counter. Gastric emptying is determined for each rat by comparing the amount of radioactivity in the intestine relative to the total in the intestine plus stomach. In addition, the geometric center of the distribution of the radioactive marker is used to measure the overall transit rate through the stomach and intestine. Geometric center is calculated as: Σ((fraction of ^51Cr per segment)×(segment number)). For these calculations the stomach is segment number 0 while the ten intestinal segments are designated 1 to 10. Thus, a geometric center of 0.0 would indicate that the entire load of ^51Cr had remained in the stomach.
Results from test compound-treated rats and vehicle-treated rats are compared using one-way ANOVA and Dunnett's test for simultaneous multiple comparisons. The effect of the test compound on gastrointestinal transit in rats is evaluated by measuring gastric emptying and the geometric center of distribution of an orally administered radioactive marker.

SMILES | effect on gastrointestinal transit | % Gastric Emptying (0.1 mg/kg p.o.) | Geometric Center (0.1 mg/kg p.o.) | increase in gastric emptying (0.5 mg/kg oral) | increase in geometric center (transit through stomach and small intestine) (0.5 mg/kg oral) | % Gastric Emptying (0.5 mg/kg p.o.) | Geometric Center (0.5 mg/kg p.o.) | increase in geometric center (transit through stomach and small intestine) (1 mg/kg oral) | increase in gastric emptying (1.0 mg/kg oral) | % Gastric Emptying (1 mg/kg p.o.) | % Gastric Emptying (1 mg/kg p.o., listed as 1st test compound) | Geometric Center (1 mg/kg p.o.) | increase in geometric center (transit through stomach and small intestine) (5 mg/kg oral) | increase in gastric emptying (5.0 mg/kg oral) | % Gastric Emptying (5 mg/kg p.o.) | % Gastric Emptying (5 mg/kg p.o., listed as 1st test compound) | Geometric Center (5 mg/kg p.o.) | gastric emptying and transport through the upper GI tract (doses of 0.5, 1 and 5 mg/kg oral)
CN1N=C2CCN(C(=O)[C@@H](COCc3ccccc3)NC(=O)C(C)(C)N)C[C@@]2(Cc2ccccc2)C1=O [first test compound, 2-amino-N-(2-(3a-(R)-benzyl-2-methyl-3-oxo-2,3,3a,4,6,7-hexahydro-pyrazolo-[4,3-c]pyridin-5-yl)-1-(R)-benzyloxymethyl-2-oxo-ethyl)-isobutyramide] | no effect | 62.5 ± 3.4% | 2.82 ± 0.17 | 25% | 39% | *79.0 ± 4.2% | *4.03 ± 0.26 | 67% | 45% | 92% | *91.5 ± 1.6% | *4.81 ± 0.21 | 68% | 49% | 94% | *93.7 ± 1.4% | *4.85 ± 0.19 | 
CC(C)(N)C(=O)N[C@H](COCc1ccc(F)cc1F)C(=O)N1CCC2=NN(CC(F)(F)F)C(=O)[C@]2(Cc2ccccn2)C1 [second test compound] | no effect | 68.9 ± 3.4% | 3.1 ± 0.2 | 21% | 37% | *79.5 ± 3.6% | *3.9 ± 0.3 | 50% | 37% | *89.9 ± 2.3% |  | *4.3 ± 0.2 | 42% | 34% | *88.3 ± 2.4% |  | *4.1 ± 0.2 | increased
